Source: PubChem BioAssay AID248 (DTP/NCI, 2004)
Several values for one entry are separate records, joined by “and”; a condition that tells them apart may be missing. Equal values may be shown once. Toxic doses and inconclusive results are not listed. Rule as the data show it: active = T/C of 150% or more; inactive = T/C below 125%.

Tested on: L1210 leukemia ip in BDF1 mice, survival T/C
Assay: NCI In Vivo Anticancer Drug Screen. Data for tumor model L1210 Leukemia (intraperitoneal) in B6D2F1 (BDF1) mice
Settings: endpoint: mean survival time, higher = longer survival
Outline: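 Transplantable tumor model; survival measured in treated vs vehicle control mice. Value = treated/control.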

[1] = dose: 100.0 mg/kg/injection, schedule: Q04DX002 (ip), vehicle: Klucel (hydroxypropylcellulose) (HPC)
[2] = dose: 200.0 mg/kg/injection, schedule: Q04DX002 (ip), vehicle: Klucel (hydroxypropylcellulose) (HPC)
[3] = dose: 400.0 mg/kg/injection, schedule: Q04DX002 (ip), vehicle: Klucel (hydroxypropylcellulose) (HPC)
[4] = dose: 100.0 mg/kg/injection, schedule: Q01DX001 (ip), vehicle: carboxymethylcellulose (CMC)
[5] = dose: 200.0 mg/kg/injection, schedule: Q01DX001 (ip), vehicle: carboxymethylcellulose (CMC)
[6] = dose: 400.0 mg/kg/injection, schedule: Q01DX001 (ip), vehicle: carboxymethylcellulose (CMC)
[7] = dose: 50.0 mg/kg/injection, schedule: Q01DX009 (ip), vehicle: saline
[8] = dose: 100.0 mg/kg/injection, schedule: Q01DX009 (ip), vehicle: saline
[9] = dose: 100.0 mg/kg/injection, schedule: Q01DX001 (ip), vehicle: saline
[10] = dose: 200.0 mg/kg/injection, schedule: Q01DX001 (ip), vehicle: saline
[11] = dose: 400.0 mg/kg/injection, schedule: Q01DX001 (ip), vehicle: saline
[12] = dose: 25.0 mg/kg/injection, schedule: Q01DX009 (ip), vehicle: Klucel (hydroxypropylcellulose) (HPC)
[13] = dose: 50.0 mg/kg/injection, schedule: Q01DX009 (ip), vehicle: Klucel (hydroxypropylcellulose) (HPC)
[14] = dose: 50.0 mg/kg/injection, schedule: Q04DX003 (ip), vehicle: Klucel (hydroxypropylcellulose) (HPC)
[15] = dose: 100.0 mg/kg/injection, schedule: Q04DX003 (ip), vehicle: saline
[16] = dose: 200.0 mg/kg/injection, schedule: Q04DX003 (ip), vehicle: saline
[17] = dose: 400.0 mg/kg/injection, schedule: Q04DX003 (ip), vehicle: saline
[18] = dose: 100.0 mg/kg/injection, schedule: Q04DX003 (ip), vehicle: Klucel (hydroxypropylcellulose) (HPC)
[19] = dose: 200.0 mg/kg/injection, schedule: Q04DX003 (ip), vehicle: Klucel (hydroxypropylcellulose) (HPC)
[20] = dose: 400.0 mg/kg/injection, schedule: Q04DX003 (ip), vehicle: Klucel (hydroxypropylcellulose) (HPC)
[21] = dose: 100.0 mg/kg/injection, schedule: Q01DX009 (ip), vehicle: Klucel (hydroxypropylcellulose) (HPC)
[22] = dose: 100.0 mg/kg/injection, schedule: Q01DX001 (ip), vehicle: Klucel (hydroxypropylcellulose) (HPC)
[23] = dose: 200.0 mg/kg/injection, schedule: Q01DX001 (ip), vehicle: Klucel (hydroxypropylcellulose) (HPC)
[24] = dose: 50.0 mg/kg/injection, schedule: Q01DX001 (ip), vehicle: Klucel (hydroxypropylcellulose) (HPC)

Measured: T/C

CCCCCOC(=O)Nc1cccc2ccccc12
inactive: [1] 94 % of control | [2] 94 % of control | [3] 98 % of control

BrCC1COc2ccccc2O1 (centres undefined)
inactive: [4] 100 % of control | [5] 100 % of control | [6] 91 % of control

S=P1(Oc2ccccc2)Nc2ccccc2N1c1ccccc1 (centres undefined)
inactive: dose: 100.0 mg/kg/injection, schedule: Q04DX002 (ip), vehicle: saline with Tween-80 92 % of control | dose: 200.0 mg/kg/injection, schedule: Q04DX002 (ip), vehicle: saline with Tween-80 98 % of control | dose: 400.0 mg/kg/injection, schedule: Q04DX002 (ip), vehicle: saline with Tween-80 95 % of control

CCCCCCCCC/C(C)=N/NC(=O)c1ccc[n+](C)c1
inactive: [7] 93 % of control | [8] 93 % of control | dose: 200.0 mg/kg/injection, schedule: Q01DX009 (ip), vehicle: saline 96 % of control

O=C([O-])c1ccccc1[I+]c1ccc(C2CCCCC2)cc1
inactive: dose: 50.0 mg/kg/injection, schedule: Q01DX001 (ip), vehicle: saline 100 % of control | [9] 100 % of control | [10] 105 % of control | [11] 103 % of control

Cc1cc(C)nc(NC(N)=NCCc2ccccc2)n1
inactive: dose: 12.5 mg/kg/injection, schedule: Q01DX009 (ip), vehicle: Klucel (hydroxypropylcellulose) (HPC) 101 % of control | dose: 12.5 mg/kg/injection, schedule: Q04DX003 (ip), vehicle: Klucel (hydroxypropylcellulose) (HPC) 102 % of control | [12] 101 % of control | dose: 25.0 mg/kg/injection, schedule: Q04DX003 (ip), vehicle: Klucel (hydroxypropylcellulose) (HPC) 100 % of control | [13] 101 % of control | [14] 102 % of control

CC1C(C)(C)P(=O)(SCc2ccccc2)C1(C)C (centres undefined)
inactive: [15] 94 % of control | [16] 103 % of control | [17] 100 % of control

C=COC(=O)N1CCCC1C(=O)O (centres undefined)
inactive: [9] 92 % of control | [10] 94 % of control | [11] 90 % of control

CCCC/C=C\C=C\CCCC
inactive: [15] 95 % of control | [16] 103 % of control | [17] 97 % of control

CC1(C(O)(c2ccccc2)c2ccccc2)CC1
inactive: dose: 25.0 mg/kg/injection, schedule: Q04DX002 (sc), vehicle: olive oil, sesame oil, peanut oil 109 % of control | dose: 50.0 mg/kg/injection, schedule: Q04DX002 (sc), vehicle: olive oil, sesame oil, peanut oil 97 % of control | dose: 100.0 mg/kg/injection, schedule: Q04DX002 (sc), vehicle: olive oil, sesame oil, peanut oil 106 % of control

C1=NCCCN1
inactive: [7] 89 % of control | [8] 94 % of control | [15] 97 % of control | [16] 100 % of control

CC1OC(OC2C(CO)OC(O[C@H]3CC[C@@]4(C)C(=CC[C@H]5[C@@H]6C[C@@H]7O[C@@]8(CC[C@H](C)CN8)[C@@H](C)[C@@H]7[C@@]6(C)CC[C@@H]54)C3)C(OC3OC(C)C(O)C(O)C3O)C2O)C(O)C(O)C1O (some centres undefined)
inactive: dose: 10.0 mg/kg/injection, schedule: Q01DX009 (ip), vehicle: saline 115 % of control | dose: 20.0 mg/kg/injection, schedule: Q01DX009 (ip), vehicle: saline 103 % of control | dose: 40.0 mg/kg/injection, schedule: Q01DX009 (ip), vehicle: saline 100 % of control | dose: 80.0 mg/kg/injection, schedule: Q01DX009 (ip), vehicle: saline 103 % of control

CCCCCCNP(=O)(Oc1ccccc1)Oc1ccccc1
inactive: [18] 97 % of control | [19] 97 % of control | [20] 105 % of control

CCC(=O)CC1CCCC(CC(=O)CC)N1 (centres undefined)
inactive: dose: 75.0 mg/kg/injection, schedule: Q01DX001 (ip), vehicle: saline 96 % of control | dose: 150.0 mg/kg/injection, schedule: Q01DX001 (ip), vehicle: saline 104 % of control

Nc1nc(N)nc(-c2ccccc2NN=Nc2ccccc2[N+](=O)[O-])n1
inactive: [21] 103 % of control | dose: 200.0 mg/kg/injection, schedule: Q01DX009 (ip), vehicle: Klucel (hydroxypropylcellulose) (HPC) 97 % of control | dose: 400.0 mg/kg/injection, schedule: Q01DX009 (ip), vehicle: Klucel (hydroxypropylcellulose) (HPC) 100 % of control

COc1ccc(-c2ccccc2)cc1S
inactive: dose: 50.0 mg/kg/injection, schedule: Q01DX001 (ip), vehicle: carboxymethylcellulose (CMC) 95 % of control | [4] 98 % of control | [5] 93 % of control | [6] 98 % of control

CC1(c2cccc3ccccc23)OCC2(CCCCC2)CO1
inactive: dose: 81.3 mg/kg/injection, schedule: Q01DX009 (ip), vehicle: DMSO 109 % of control | dose: 100.0 mg/kg/injection, schedule: Q04DX003 (ip), vehicle: DMSO 92 % of control | dose: 200.0 mg/kg/injection, schedule: Q04DX003 (ip), vehicle: DMSO 90 % of control | dose: 400.0 mg/kg/injection, schedule: Q04DX003 (ip), vehicle: DMSO 95 % of control

Cc1cccc(N=Cc2cccc([N+](=O)[O-])c2)c1
inactive: [14] 98 % of control | [22] 100 % of control | [18] 98 % of control | [23] 94 % of control | [19] 98 % of control | dose: 400.0 mg/kg/injection, schedule: Q01DX001 (ip), vehicle: Klucel (hydroxypropylcellulose) (HPC) 92 % of control

O=C(O)CNC(=O)c1cccc([N+](=O)[O-])c1
inactive: [18] 99 % of control | [19] 101 % of control | [20] 94 % of control

C1CCC2OC3(CC2C1)OC1CCCCC1O3 (centres undefined)
inactive: dose: 75.0 mg/kg/injection, schedule: Q04DX002 (ip), vehicle: saline + alcohol 101 % of control | dose: 150.0 mg/kg/injection, schedule: Q04DX002 (ip), vehicle: saline + alcohol 116 % of control | dose: 300.0 mg/kg/injection, schedule: Q04DX002 (ip), vehicle: saline + alcohol 105 % of control

Cc1csc2c1c(N)nc(=O)n2C1OC(CO)C(O)C1O (centres undefined)
inactive: dose: 100.0 mg/kg/injection, schedule: Q01DX005 (ip), vehicle: saline 112 % of control | dose: 200.0 mg/kg/injection, schedule: Q01DX005 (ip), vehicle: saline 102 % of control

COc1ccc(C(C#N)=C2C=CC(=NO)C=C2)cc1
inactive: dose: 100.0 mg/kg/injection, schedule: Q01DX009 (ip), vehicle: saline with Tween-80 94 % of control

CCCCNC(=S)NC(=O)c1ccc(Br)cc1
inactive: [1] 97 % of control | [2] 97 % of control | [3] 90 % of control

CCC(CCc1ccc(OC)c(OC)c1)C(=O)O (centres undefined)
inactive: dose: 100.0 mg/kg/injection, schedule: Q01DX001 (ip), vehicle: saline with Tween-80 93 % of control | dose: 200.0 mg/kg/injection, schedule: Q01DX001 (ip), vehicle: saline with Tween-80 98 % of control | dose: 400.0 mg/kg/injection, schedule: Q01DX001 (ip), vehicle: saline with Tween-80 98 % of control

CCCNC(=O)Sc1ccc(C(C)(C)C)cc1
inactive: dose: 25.0 mg/kg/injection, schedule: Q01DX001 (ip), vehicle: Klucel (hydroxypropylcellulose) (HPC) 91 % of control | [12] 95 % of control and 104 % of control | [24] 91 % of control | [13] 98 % of control and 112 % of control | [22] 93 % of control | [21] 93 % of control and 102 % of control and 104 % of control | [1] 95 % of control and 89 % of control | [2] 96 % of control and 97 % of control | [3] 92 % of control and 93 % of control

CC(C)=NSc1ccccc1
inactive: [24] 99 % of control | [22] 97 % of control | [23] 97 % of control

COc1ccc(C2CCCN(C)O2)cc1 (centres undefined)
inactive: dose: 100.0 mg/kg/injection, schedule: Q01DX001 (ip), vehicle: acetone 102 % of control | dose: 200.0 mg/kg/injection, schedule: Q01DX001 (ip), vehicle: acetone 91 % of control | dose: 400.0 mg/kg/injection, schedule: Q01DX001 (ip), vehicle: acetone 98 % of control
